{"source": "patent US20020076722A1", "about": "“Antibiotic hypersusceptibility mutations in bacteria” (priority 2000, published 2002)", "key": {"[1]": {"system": "Acinetobacter library cells and SDR-selected clones", "assay": "Growth of clones replica-plated on LB-agar plates with different concentrations of ampicillin", "assay_type": "cell-based, Acinetobacter sp.", "description": "Each individual clone was inoculated into a well of a 96-well plate. When the cultures reached the density of approx. OD600 0.2-0.5, they were transferred by using a 6×8-pin replicator onto LB-agar plates containing kanamycin (25 μg/ml) and different concentrations of ampicillin. Plates were digitally scanned after 24 hr of incubation at 37° C. (FIG. 3). The spots indicated as Library are identical cultures from the original library and serve here as controls.\nThe computer scans of different plates were combined in a single set. This study has been conducted essentially as described in Example 2."}, "[2]": {"system": "Acinetobacter library cells", "assay": "Inhibition of growth of Acinetobacter library cells by ampicillin in liquid culture", "assay_type": "cell-based, Acinetobacter sp. strain BD413", "description": "Clones hypersusceptible to the β-lactam drug ampicillin, an antibiotic that is well known to cause bacterial lysis, were selected. As compared to E. coli, Acinetobacter is remarkably resistant to ampicillin.\nTo purify the DNA released, bacterial cells from the insertional library of Acinetobacter were diluted in LB medium to OD600 0.025 and allowed to grow at 37° C. to OD600 0.1. Ampicillin was added to 5 ml aliquots of the culture at a variety of concentrations. After two hours, the cells were removed by centrifugation. DNA released into the medium in response to incubation with ampicillin was purified using a variation of the Wizard DNA purification protocols of Promega. Specifically, three grams of guanidine-HCl was dissolved in 5 ml of the culture medium and 1 ml of the slurry of DNA-binding silica resin (Promega Wizard DNA purification resin) was added. After a 5 min incubation with shaking, the resin was collected in a mini-column by passing the slurry through it with a syringe. […]\nCells of a frozen insertional library of Acinetobacter were diluted in LB medium to OD600 0.025 and allowed to grow at 37° C. to OD600 0.1, at which point ampicillin was added to 5 ml aliquots of the culture at the indicated concentrations. Two hours later the density of the cultures was measured, cells were removed by centrifugation and the DNA released into the medium was purified. […]"}, "[3]": {"system": "LIT1 strain", "assay": "Release of DNA and growth of the LIT1 lysis reporter strain with translational inhibitors", "assay_type": "cell-based, Acinetobacter", "conditions": "LIT1 clone; for DNA released in presence of antibiotic versus absence, normalized per ml of culture: 2 h (chloramphenicol) or 1.5 h (erythromycin, tetracycline)", "description": "The LIT1 cells were inoculated in LB at OD600 0.05 and grown at 37° C. to OD600 0.2 at which time antibiotics were added at indicated concentrations. Two (chloramphenicol) or 1.5 (erythromycin and tetracycline) hours later the OD600 of the cultures were measured, cells were spun down and the released DNA was purified as described above. The amounts of DNA in μg normalized per milliliter of culture was determined fluorimetrically by adding an aliquot of the isolated DNA to the solution of ethidium bromide (0.5 μg/ml) and measuring the fluorescence at λex 540 and λem 580 nm (FIG. 7). The values obtained were compared with the calibration curve for known amounts of DNA."}, "[4]": {"system": "alkM model strain (lysis cassette under alkM promoter)", "assay": "Induction of DNA release by hexadecane in the alkM model strain", "assay_type": "cell-based, Acinetobacter", "description": "(§1) FIG. 6—Gene organization in the alkM model strain and induction of DNA release before and after SDR selection. Transformants 1 and 2 and the derivative of the transformant 1 after four cycles of SDR selection were grown to OD600 0.3 and a drop of hexadecane was added to 5 ml of the culture. After overnight incubation (induction of the alkM expression occurs only in stationary phase (Ratajczak et al., J. Bacteriol. 180(22):5822-7, 1998)) the released DNA was purified from the medium as described in the text.\n(§2) A model strain of Acinetobacter with the lysis cassette of λ inserted under the control of a antibiotic-inducible promoter was constructed and determined to release DNA in response to the antibiotic inducer. A promoter of the alkM gene of Acinetobacter, which encodes an enzyme involved in degradation of hydrocarbons and whose expression is activated dramatically by hexadecane, was chosen (Ratajczak et al., 1998). The promoter-less lysis cassette was PCR-amplified from the DNA of λ. The 5′-end of the gene of S-protein, which is the limiting factor in lysis (Young, 1992), was modified by an appropriately designed PCR primer. In particular, the alternative start codon from which an inhibitory variant of S is translated has been eliminated by mutation. […]"}, "[5]": {"system": "wild-type Acinetobacter", "assay": "DNA release by hexadecane in wild-type Acinetobacter", "assay_type": "cell-based", "description": "as §1, §2"}, "[6]": {"system": "E. Coli", "conditions": "bulgecin as known inhibitor of Slt; cited from earlier work"}}}
{"compound": "CC1(C)S[C@@H]2[C@H](NC(=O)[C@H](N)c3ccccc3)C(=O)N2[C@H]1C(=O)O", "note": "[ampicillin]", "values": [{"measurement": "ampicillin concentration on plates at which library cells were still growing", "setting": "[1]; original library cells, LB-agar, 24 hr", "result": 32, "unit": "µg/mL"}, {"measurement": "ampicillin concentration at which clones could not grow", "setting": "[1]; seventeen of 30 tested clones selected with 3 μg/ml of ampicillin", "result": 1, "unit": "µg/mL"}, {"measurement": "growth inhibition at the concentrations used for SDR selection", "setting": "[2]; 1, 3 and 9 μg/ml ampicillin, little lysis", "result": "only moderate growth inhibition"}, {"measurement": "ampicillin concentration at which slow growth was still observed", "setting": "[2]; liquid culture, LB, 37° C., two hours", "result": 729, "unit": "µg/mL"}]}
{"compound": "O=C(N[C@H](CO)[C@H](O)c1ccc([N+](=O)[O-])cc1)C(Cl)Cl", "note": "[chloramphenicol]", "values": [{"measurement": "increase of released DNA normalized per number of cells", "setting": "[3]", "result": "approximately ten-fold"}, {"measurement": "DNA released in presence of antibiotic versus absence, normalized per ml of culture", "setting": "[3]", "result": "four times more"}]}
{"compound": "CC[C@H]1OC(=O)[C@H](C)[C@@H](O[C@H]2C[C@@](C)(OC)[C@@H](O)[C@H](C)O2)[C@H](C)[C@@H](O[C@@H]2O[C@H](C)C[C@H](N(C)C)[C@H]2O)[C@](C)(O)C[C@@H](C)C(=O)[C@H](C)[C@@H](O)[C@]1(C)O", "note": "[erythromycin]", "values": [{"measurement": "increase of released DNA normalized per number of cells", "setting": "[3]", "result": "approximately ten-fold"}, {"measurement": "DNA released in presence of antibiotic versus absence, normalized per ml of culture", "setting": "[3]", "result": "four-fold"}]}
{"compound": "CCCCCCCCCCCCCCCC", "note": "[hexadecane]", "values": [{"measurement": "effect on optical density of the culture", "setting": "[4]; model strain before SDR selection", "result": "did not cause significant reduction"}, {"measurement": "effect on amount of DNA released", "setting": "[4]; transformants, drop of hexadecane in 5 ml culture, overnight", "result": "significant increase"}, {"measurement": "effect on release of DNA", "setting": "[5]", "result": "no effect"}]}
{"compound": "CN(C)[C@@H]1C(O)=C(C(N)=O)C(=O)[C@@]2(O)C(O)=C3C(=O)c4c(O)cccc4[C@@](C)(O)[C@H]3C[C@@H]12", "note": "[tetracycline]", "values": [{"measurement": "increase of released DNA normalized per number of cells", "setting": "[3]", "result": "~35", "unit": "fold"}]}
{"compound": "bulgecin", "values": [{"measurement": "effect on sensitivity to the β-lactam antibiotic cefoxitin", "setting": "[6]", "result": "increase the sensitivity"}]}
